Measured values reported in patent US6461997B1, “Triazole sulfones having herbicidal activity” (Monsanto Technology LLC, priority 1999, dated 2002).

How the values were obtained:
barley (HORVX) = assay: Selectivity test, PPI, cool season crop; type: in vivo, Hordeunm vulgare; settings: PPI application
Description: (§1) A pre-prepared topsoil mixture (described above) was placed in a pot and compacted to a depth of 1.0 to 1.25 cm from the top of the pot. Seeds of each of several monocotyledonous and dicotyledonous annual plant species were placed on top of the soil. A sufficient quantity of soil to cover the seeds and level fill the pot was weighed into an open container. A known amount of the test compound was dissolved or suspended in an organic solvent and applied by spraying to this cover soil. The cover soil was thoroughly mixed to distribute the test compound throughout the cover soil, and was then applied as a cover layer over the seeds. Untreated soil was used as a cover layer for control pots. After treatment the plants were placed in a greenhouse where they received 0.64 cm of overhead irrigation. All subsequent watering consisted of a light overhead mist and/or subirrigation as needed for germination and growth. Tables 9 and 10 below relate to warm season plant species which were placed after pre-emergence treatment in a greenhouse with a 30/21° C. day/night temperature regime. Tables 11 and 12 below relates to cool season plant species placed after pre-emergence treatment in a greenhouse or growth chamber with an 18/13° C. day/night temperature regime. Only the compounds of Examples 1, 6, 8, 11, 13 and 15-20 were included in PPI tests.
(§2) Approximately 14 days after planting and treating, the plants were observed and herbicidal efficacy recorded as percent inhibition by comparison with untreated plants.
(§3) Additional pre-emergence and PPI tests were conducted by the procedures described above, on warm and cool season weed species in the presence of crop species, to assess herbicidal selectivity. Crop species included in warm season tests were corn (Zea mays, ZEAMX), rice (Oryza sativa, ORYSA) and soybean (Glycine max, GLYMX). Crop species included in cool season tests were wheat (Triticum aestivum, TRZAW), barley (Hordeunm vulgare, HORVX) and oilseed rape (Brassica napus, BRSNS).
(§4) Tables 15 and 16 relate to pre-emergence and PPI tests respectively on warm season species. Table 17 relates to pre-emergence tests on cool season species.

[1] = system: LAMPU (purple deadnettle); assay: Pre-plant incorporated (PPI) herbicidal activity, cool season; type: in vivo, Lamium purpureum; settings: weed, PPI application
Description: (§5) In another set of tests, the pre-plant incorporated (PPI) activity of compounds of this invention was evaluated on the same species as for the pre-emergence tests described above. In the PPI tests the following procedure, designed to simulate PPI application, was used.
as §1, §2

STEME (common chickweed) = assay: as above; type: in vivo, Stellaria media; settings: weed, PPI application
Description: as §5, §1, §2

wheat (TRZAW) = assay: Selectivity test, PPI, cool season crop; type: in vivo, Triticum aestivum; settings: PPI application
Description: as §1, §2, §3, §4

SETVI (green foxtail) = assay: Pre-plant incorporated (PPI) herbicidal activity, cool season; type: in vivo, Setaria viridis; settings: weed, PPI application
Description: as §5, §1, §2

SINAR (wild mustard) = assay: as above; type: in vivo, Sinapis arvensis; settings: weed, PPI application
Description: as §5, §1, §2

SORVU (shattercane) = assay: Pre-plant incorporated (PPI) herbicidal activity, warm season; type: in vivo, Sorghum vulgare; settings: PPI application
Description: as §5, §1, §2

[2] = system: BRAPP (broadleaf signalgrass); assay: as above; type: in vivo, Brachiaria platyphylla; settings: PPI application
Description: as §5, §1, §2

[3] = system: AGRRE (quackgrass (seedling)); assay: Pre-plant incorporated (PPI) herbicidal activity, cool season; type: in vivo, Elymus repens; settings: weed, PPI application
Description: as §5, §1, §2

[4] = system: GALAP (catchweed bedstraw); assay: as above; type: in vivo, Galium aparine; settings: weed, PPI application
Description: as §5, §1, §2

SASKR (russian thistle) = assay: as above; type: in vivo, Salsola kali; settings: weed, PPI application
Description: as §5, §1, §2

corn (ZEAMX) = assay: Selectivity test, PPI, warm season crop; type: in vivo, Zea mays; settings: PPI application
Description: as §1, §2, §3, §4

SETFA (giant foxtail) = assay: Pre-plant incorporated (PPI) herbicidal activity, warm season; type: in vivo, Setaria faberi; settings: PPI application
Description: as §5, §1, §2

Compound: CCN(CC)C(=O)n1cnc(S(=O)(=O)C(F)(F)Cl)n1 [Example 3]
- Percent inhibition HORVX (barley (HORVX); 30 g/ha): 0%
- Percent inhibition HORVX (barley (HORVX); 100 g/ha): 0%
- Percent inhibition HORVX (barley (HORVX); 300 g/ha): 10%
- Percent inhibition HORVX (barley (HORVX); 900 g/ha): 80%
- Percent inhibition LAMPU ([1]; 30 g/ha): 60%
- Percent inhibition LAMPU ([1]; 100 g/ha): 95%
- Percent inhibition LAMPU ([1]; 300 g/ha): 100%
- Percent inhibition LAMPU ([1]; 900 g/ha): 100%
- Percent inhibition STEME (STEME (common chickweed); 30 g/ha): 60%
- Percent inhibition STEME (STEME (common chickweed); 100 g/ha): 80%
- Percent inhibition STEME (STEME (common chickweed); 300 g/ha): 100%
- Percent inhibition STEME (STEME (common chickweed); 900 g/ha): 100%
- Percent inhibition TRZAW (wheat (TRZAW); 30 g/ha): 0%
- Percent inhibition TRZAW (wheat (TRZAW); 100 g/ha): 0%
- Percent inhibition TRZAW (wheat (TRZAW); 300 g/ha): 20%
- Percent inhibition TRZAW (wheat (TRZAW); 900 g/ha): 40%
- Percent inhibition SETVI (SETVI (green foxtail); 30 g/ha): 100%
- Percent inhibition SETVI (SETVI (green foxtail); 100 g/ha): 100%
- Percent inhibition SETVI (SETVI (green foxtail); 300 g/ha): 100%
- Percent inhibition SETVI (SETVI (green foxtail); 900 g/ha): 100%
- Percent inhibition SINAR (SINAR (wild mustard); 30 g/ha): 100%
- Percent inhibition SINAR (SINAR (wild mustard); 100 g/ha): 100%
- Percent inhibition SINAR (SINAR (wild mustard); 300 g/ha): 100%
- Percent inhibition SINAR (SINAR (wild mustard); 900 g/ha): 100%
- Percent inhibition SORVU (SORVU (shattercane); 30 g/ha): 70%
- Percent inhibition SORVU (SORVU (shattercane); 100 g/ha): 95%
- Percent inhibition SORVU (SORVU (shattercane); 300 g/ha): 100%
- Percent inhibition SORVU (SORVU (shattercane); 900 g/ha): 100%
- Percent inhibition BRAPP ([2]; 30 g/ha): 30%
- Percent inhibition BRAPP ([2]; 100 g/ha): 100%
- Percent inhibition BRAPP ([2]; 300 g/ha): 100%
- Percent inhibition BRAPP ([2]; 900 g/ha): 90%
- Percent inhibition AGRRE ([3]; 30 g/ha): 20%
- Percent inhibition AGRRE ([3]; 100 g/ha): 50%
- Percent inhibition AGRRE ([3]; 300 g/ha): 80%
- Percent inhibition AGRRE ([3]; 900 g/ha): 95%
- Percent inhibition GALAP ([4]; 30 g/ha): 100%
- Percent inhibition GALAP ([4]; 100 g/ha): 100%
- Percent inhibition GALAP ([4]; 300 g/ha): 100%
- Percent inhibition GALAP ([4]; 900 g/ha): 100%
- Percent inhibition SASKR (SASKR (russian thistle); 30 g/ha): 80%
- Percent inhibition SASKR (SASKR (russian thistle); 100 g/ha): 80%
- Percent inhibition SASKR (SASKR (russian thistle); 300 g/ha): 100%
- Percent inhibition SASKR (SASKR (russian thistle); 900 g/ha): 100%
- Percent inhibition ZEAMX (corn (ZEAMX); 30 g/ha): 5%
- Percent inhibition ZEAMX (corn (ZEAMX); 100 g/ha): 10%
- Percent inhibition ZEAMX (corn (ZEAMX); 300 g/ha): 30%
- Percent inhibition ZEAMX (corn (ZEAMX); 900 g/ha): 55%
- Percent inhibition SETFA (SETFA (giant foxtail); 30 g/ha): 100%
- Percent inhibition SETFA (SETFA (giant foxtail); 100 g/ha): 100%
- Percent inhibition SETFA (SETFA (giant foxtail); 300 g/ha): 100%
- Percent inhibition SETFA (SETFA (giant foxtail); 900 g/ha): 100%

Compound: CCN(CC)C(=O)n1cnc(S(=O)(=O)C(F)(F)C(F)(F)Br)n1 [Example 4]
- Percent inhibition HORVX (barley (HORVX); 30 g/ha): 0%
- Percent inhibition HORVX (barley (HORVX); 100 g/ha): 0%
- Percent inhibition HORVX (barley (HORVX); 300 g/ha): 50%
- Percent inhibition HORVX (barley (HORVX); 900 g/ha): 90%
- Percent inhibition LAMPU ([1]; 30 g/ha): 40%
- Percent inhibition LAMPU ([1]; 100 g/ha): 80%
- Percent inhibition LAMPU ([1]; 300 g/ha): 80%
- Percent inhibition LAMPU ([1]; 900 g/ha): 90%
- Percent inhibition STEME (STEME (common chickweed); 30 g/ha): 10%
- Percent inhibition STEME (STEME (common chickweed); 100 g/ha): 60%
- Percent inhibition STEME (STEME (common chickweed); 300 g/ha): 80%
- Percent inhibition STEME (STEME (common chickweed); 900 g/ha): 95%
- Percent inhibition TRZAW (wheat (TRZAW); 30 g/ha): 0%
- Percent inhibition TRZAW (wheat (TRZAW); 100 g/ha): 10%
- Percent inhibition TRZAW (wheat (TRZAW); 300 g/ha): 30%
- Percent inhibition TRZAW (wheat (TRZAW); 900 g/ha): 45%
- Percent inhibition SETVI (SETVI (green foxtail); 30 g/ha): 99%
- Percent inhibition SETVI (SETVI (green foxtail); 100 g/ha): 100%
- Percent inhibition SETVI (SETVI (green foxtail); 300 g/ha): 100%
- Percent inhibition SETVI (SETVI (green foxtail); 900 g/ha): 100%
- Percent inhibition SINAR (SINAR (wild mustard); 30 g/ha): 95%
- Percent inhibition SINAR (SINAR (wild mustard); 100 g/ha): 100%
- Percent inhibition SINAR (SINAR (wild mustard); 300 g/ha): 100%
- Percent inhibition SINAR (SINAR (wild mustard); 900 g/ha): 100%
- Percent inhibition SORVU (SORVU (shattercane); 30 g/ha): 0%
- Percent inhibition SORVU (SORVU (shattercane); 100 g/ha): 45%
- Percent inhibition SORVU (SORVU (shattercane); 300 g/ha): 100%
- Percent inhibition SORVU (SORVU (shattercane); 900 g/ha): 100%
- Percent inhibition BRAPP ([2]; 30 g/ha): 0%
- Percent inhibition BRAPP ([2]; 100 g/ha): 60%
- Percent inhibition BRAPP ([2]; 300 g/ha): 100%
- Percent inhibition BRAPP ([2]; 900 g/ha): 100%
- Percent inhibition AGRRE ([3]; 30 g/ha): 50%
- Percent inhibition AGRRE ([3]; 100 g/ha): 70%
- Percent inhibition AGRRE ([3]; 300 g/ha): 80%
- Percent inhibition AGRRE ([3]; 900 g/ha): 90%
- Percent inhibition GALAP ([4]; 30 g/ha): 75%
- Percent inhibition GALAP ([4]; 100 g/ha): 100%
- Percent inhibition GALAP ([4]; 300 g/ha): 100%
- Percent inhibition GALAP ([4]; 900 g/ha): 100%
- Percent inhibition SASKR (SASKR (russian thistle); 30 g/ha): 75%
- Percent inhibition SASKR (SASKR (russian thistle); 100 g/ha): 90%
- Percent inhibition SASKR (SASKR (russian thistle); 300 g/ha): 99%
- Percent inhibition SASKR (SASKR (russian thistle); 900 g/ha): 100%
- Percent inhibition ZEAMX (corn (ZEAMX); 30 g/ha): 0%
- Percent inhibition ZEAMX (corn (ZEAMX); 100 g/ha): 5%
- Percent inhibition ZEAMX (corn (ZEAMX); 300 g/ha): 40%
- Percent inhibition ZEAMX (corn (ZEAMX); 900 g/ha): 50%
- Percent inhibition SETFA (SETFA (giant foxtail); 30 g/ha): 100%
- Percent inhibition SETFA (SETFA (giant foxtail); 100 g/ha): 100%
- Percent inhibition SETFA (SETFA (giant foxtail); 300 g/ha): 100%
- Percent inhibition SETFA (SETFA (giant foxtail); 900 g/ha): 100%
